# Source: PMC11275175, “Cannabielsoin (CBE), a CBD Oxidation Product, Is a Biased CB1 Agonist” (Biomedicines, 2024)
# How the values were obtained:
# Assay type in all cases: cell-based
# [1] = molecular target: T1, cannabinoid receptor type 1 (CB1) (Homo sapiens, UniProt P21554); assay: cAMP Hunter CHO-K1 CNR1 Gi agonist assay (inhibition of forskolin-stimulated cAMP)
# T1 construct: gene CNR1
# [2] = molecular target: T1, cannabinoid receptor type 1 (CB1); assay: cAMP Hunter CHO-K1 CNR1 Gi antagonist assay vs […] CP55940
# CB1 receptor [3] = molecular target: T2, CB1 receptor (Mus musculus, UniProt P47746); assay: PathHunter β-arrestin CHO-K1 agonist assay (EC80)
# T2 construct: gene Cnr1
# CB1 receptor [4] = molecular target: T2, CB1 receptor; assay: PathHunter β-arrestin CHO-K1 antagonist assay vs CP55940
# T2 sequence (P47746 whole entry): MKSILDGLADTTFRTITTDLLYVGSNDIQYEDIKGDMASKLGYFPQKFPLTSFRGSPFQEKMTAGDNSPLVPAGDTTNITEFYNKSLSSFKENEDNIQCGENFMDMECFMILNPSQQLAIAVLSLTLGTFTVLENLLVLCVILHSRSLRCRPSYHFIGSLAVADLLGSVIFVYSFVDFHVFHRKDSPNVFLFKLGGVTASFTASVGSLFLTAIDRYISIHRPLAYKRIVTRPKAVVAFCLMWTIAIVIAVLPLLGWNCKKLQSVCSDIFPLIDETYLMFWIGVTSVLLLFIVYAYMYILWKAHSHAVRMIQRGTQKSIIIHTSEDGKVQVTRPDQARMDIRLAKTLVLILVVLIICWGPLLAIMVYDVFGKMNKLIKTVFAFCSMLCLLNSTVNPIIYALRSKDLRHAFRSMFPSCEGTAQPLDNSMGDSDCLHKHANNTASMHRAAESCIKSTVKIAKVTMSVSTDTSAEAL
# T1 sequence (P21554 whole entry): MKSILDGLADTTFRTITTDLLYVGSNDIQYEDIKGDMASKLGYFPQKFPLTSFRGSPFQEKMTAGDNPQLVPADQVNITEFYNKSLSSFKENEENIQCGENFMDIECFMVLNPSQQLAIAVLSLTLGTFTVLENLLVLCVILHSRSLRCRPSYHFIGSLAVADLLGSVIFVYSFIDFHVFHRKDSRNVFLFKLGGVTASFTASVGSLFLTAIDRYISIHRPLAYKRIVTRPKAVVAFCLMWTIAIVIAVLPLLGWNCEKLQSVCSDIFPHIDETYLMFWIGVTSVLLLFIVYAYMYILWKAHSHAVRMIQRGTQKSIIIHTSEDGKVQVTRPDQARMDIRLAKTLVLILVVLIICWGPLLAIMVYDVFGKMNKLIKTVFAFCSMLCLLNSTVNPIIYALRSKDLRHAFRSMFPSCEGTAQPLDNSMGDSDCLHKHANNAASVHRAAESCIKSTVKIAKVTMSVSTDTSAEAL
compound,measurement,setting,value
C=C(C)[C@@H]1CC[C@](C)(O)[C@H]2Oc3cc(CCCCC)cc(O)c3[C@@H]12 [S-CBE],EC50,[1],3720 nM
Cc1c(C(=O)NN2CCCCC2)nn(-c2ccc(Cl)cc2Cl)c1-c1ccc(I)cc1 [AM251],cAMP Hunter CHO-K1 CNR1 Gi antagonist assay vs 1.2 nM CP55940,[2],"the antagonist/inverse agonist of CB1, AM251, completely diminished the agonist signal of CP55940"
CCCCCCC(C)(C)c1ccc([C@@H]2C[C@H](O)CC[C@H]2CCCO)c(O)c1 (racemic) [CP55940],EC80,CB1 receptor [3],11.5 nM
Cc1c(C(=O)NN2CCOCC2)nn(-c2ccc(Cl)cc2Cl)c1-c1ccc(I)cc1 [AM281],IC50,CB1 receptor [4],40 nM
